The values that follow come from publication PMC10446491 (Frontiers in Immunology, 2023).

The test system of this test is lysis of EA. The experiment in a line: CH50 test of C5 proteins in 1.5% C5-depleted human sera with EA. It counts as cell-based. As to conditions: 1.5% C5-depleted human sera supplemented with C5 protein. How it is done:
Recombinant human C5 R885 variants (rhC5 R885C and rhC5 R885H) were prepared in-house ( Supplementary Material ). Their activities on complement activation were examined by the CH50 test using 1.5% C5-depleted human sera supplemented with C5 R885 variants. […] Other procedures and data analysis are described in Section 2.3.
Supplementary Figure 2. Determination of CH50 of the hemolysis by C5 from different sources. Wild type C5 purified from human sera (hC5 compTech) (Complement Technologies), recombinant C5 wild type (rhC5 WT), recombinant C5 variant R885C (rhC5 R885C), and recombinant C5 variant R885H (rhC5 R885H). Various concentrations of protein C5 were added to 1.5% C5-depleted human sera followed by incubation with EA (0.5×) in GVB++ buffer. All data were from 2 plates (duplicate in each plate).

For the substance “C5 wt: Wild-type human C5, purified from human sera or recombinant (rhC5 wt)”, the CH50 was 0.2 to 0.3 nM.

In turn, “rhC5 R885C: Recombinant human C5 variant with single mutation R885C, prepared in-house” came in with a CH50 of 5.2 nM.

“rhC5 R885H: Recombinant human C5 variant with single mutation R885H, prepared in-house” displayed a CH50 of 1.1 nM.
